Assay results taken from publication PMC3750913 (BMC Microbiology, 2013).

Key:
[1] = system: HCMV; test: Dose-response antiviral assay (plaque assay); assay type: cell-based, human cytomegalovirus; conditions: HCMV, HEL cells
[2] = system: HCV; assay type: cell-based, hepatitis C virus; conditions: Huh-7.5 cells
[3] = system: DENV-2; test: Dose-response antiviral assay (immunohistochemical staining plaque assay); assay type: cell-based, dengue virus type 2; conditions: DENV-2, Vero cells
[4] = system: VSV; assay type: cell-based, vesicular stomatitis virus; conditions: A549 cells
[5] = system: HCMV; test: Viral inactivation assay; assay type: cell-based, human cytomegalovirus
[6] = system: HCV; test: Viral inactivation assay; assay type: cell-based; conditions: Hepatitis C virus
[7] = system: DENV-2; test: Viral inactivation assay; assay type: cell-based, dengue virus type 2; conditions: Dengue virus
[8] = system: MV; test: Viral inactivation assay; assay type: cell-based, measles virus
[9] = system: RSV; test: Viral inactivation assay; assay type: cell-based, respiratory syncytial virus
[10] = system: DENV-2; test: Viral attachment assay, method 1 (host cell infection); assay type: cell-based, dengue virus type 2; conditions: DENV-2, method 1, 4°C; Figure 4
[11] = system: MV; test: as above; assay type: cell-based, measles virus
[12] = system: RSV; test: as above; assay type: cell-based, respiratory syncytial virus
[13] = system: HCMV; test: Viral attachment assay, method 2 (virus-specific cellular ELISA); assay type: cell-based, human cytomegalovirus; conditions: HCMV MOI 5, ELISA, 4°C; highest inhibitory concentration of the compounds
[14] = system: HCV; test: as above; assay type: cell-based, hepatitis C virus; conditions: HCV MOI 0.1, ELISA, 4°C; highest inhibitory concentration of the compounds
[15] = system: DENV-2; test: as above; assay type: cell-based, dengue virus type 2; conditions: DENV-2 MOI 5, ELISA, 4°C; highest inhibitory concentration of the compounds
[16] = system: MV; test: as above; assay type: cell-based, measles virus; conditions: MV MOI 1, ELISA, 4°C; highest inhibitory concentration of the compounds
[17] = system: RSV; test: as above; assay type: cell-based, respiratory syncytial virus; conditions: RSV MOI 5, ELISA, 4°C; highest inhibitory concentration of the compounds
[18] = system: HCMV; test: Viral penetration assay; assay type: cell-based, human cytomegalovirus
[19] = system: HCV; test: Viral penetration assay; assay type: cell-based, hepatitis C virus
[20] = system: MV; test: Viral penetration assay; assay type: cell-based, measles virus
[21] = system: RSV; test: Viral penetration assay; assay type: cell-based, respiratory syncytial virus
[22] = system: HCMV; test: Analysis of drug effects post viral entry; assay type: cell-based, human cytomegalovirus
[23] = system: HCV; test: Analysis of drug effects post viral entry; assay type: cell-based, hepatitis C virus
[24] = system: DENV-2; test: Analysis of drug effects post viral entry; assay type: cell-based, dengue virus type 2; conditions: DENV-2; Figure 6
[25] = system: MV; test: Analysis of drug effects post viral entry; assay type: cell-based, measles virus
[26] = system: RSV; test: Analysis of drug effects post viral entry; assay type: cell-based, respiratory syncytial virus
[27] = system: HCMV; test: Viral cell-to-cell spread assay; assay type: cell-based, human cytomegalovirus
[28] = system: DENV-2; test: Viral cell-to-cell spread assay; assay type: cell-based, dengue virus type 2
[29] = system: RSV; test: Viral cell-to-cell spread assay; assay type: cell-based, respiratory syncytial virus
[30] = In vivo toxicological and metabolic studies; ref [67], [68]; cited from earlier work

**Q.** With O=C1O[C@H]2[C@@H]3OC(=O)c4cc(O)c(O)c(O)c4-c4c(O)c(O)c5oc(=O)c6c(c(O)c(O)c7oc(=O)c4c5c76)-c4c(cc(O)c(O)c4O)C(=O)OC[C@H]3OC(O)[C@@H]2OC(=O)c2cc(O)c(O)c(O)c2-c2c1cc(O)c(O)c2O (mixture of isomers) [PUG, punicalagin] as the molecule, how does the “SI (selectivity index, CC50/EC50)” value [1] read?
**A.** The value was 17.86.

**Q.** And the “SI (selectivity index, CC50/EC50)” value [2]?
**A.** Its value is 13.31.

**Q.** What about the “SI (selectivity index, CC50/EC50)” value [3] of the same molecule?
**A.** Its value is 19.27.

**Q.** What about the “SI (selectivity index, CC50/EC50)” value [4] of the same molecule?
**A.** Its value is 8.62.

**Q.** And the inhibition at 40 µM ([5]; Human betaherpesvirus 5, HEL, read-out: Window of antiviral effects: Free particle, inhibitory effect relative to DMSO control)?
**A.** The inhibition at 40 µM was greater than 75%.

**Q.** And the inhibition at 40 µM ([5]; Human betaherpesvirus 5, read-out: inhibition of infection after pre-incubation of free virus with compound)?
**A.** The inhibition at 40 µM was roughly 100%.

**Q.** What about the inhibition at 50 µM ([6]; Huh7.5, read-out: Window of antiviral effects: Free particle, inhibitory effect relative to DMSO control) of the same molecule?
**A.** The inhibition at 50 µM was greater than 75%.

**Q.** And the inhibition at 50 µM ([6]; read-out: inhibition of infection after pre-incubation of free virus with compound)?
**A.** The inhibition at 50 µM was roughly 100%.

**Q.** And the inhibition at 25 µM ([7]; DENV2, Vero, read-out: Window of antiviral effects: Free particle, inhibitory effect relative to DMSO control)?
**A.** Its inhibition at 25 µM is greater than 75%.

**Q.** What about the inhibition at 25 µM ([7]; DENV2, read-out: inhibition of infection after pre-incubation of free virus with compound) of the same molecule?
**A.** Its inhibition at 25 µM is roughly 100%.

**Q.** What about the “block of infection after pre-incubation of free virus with compound” value ([8]; MV, CHLA 90 μM, PUG 50 μM, Figure 3) of the same molecule?
**A.** Its value is 60 – 80%.

**Q.** And the inhibition at 50 µM ([8]; Measles morbillivirus, read-out: Window of antiviral effects: Free particle, inhibitory effect relative to DMSO control)?
**A.** Its inhibition at 50 µM is 50 to 75%.

**Q.** And the “block of infection after pre-incubation of free virus with compound” value ([9]; RSV, CHLA 1 μM, PUG 2 μM, Figure 3)?
**A.** Its value is 60 – 80%.

**Q.** What about the inhibition at 2 µM ([9]; human respiratory syncytial virus, HEp-2, read-out: Window of antiviral effects: Free particle, inhibitory effect relative to DMSO control) of the same molecule?
**A.** Its inhibition at 2 µM is greater than 75%.

**Q.** And the “inhibition of virus attachment” value [10]?
**A.** The value was 90 – 100%.

**Q.** And the “inhibition of entry (virus attachment)” value ([11]; MV, method 1, 4°C, Figure 4, PUG more effective than CHLA)?
**A.** The value was 50 – 80%.

**Q.** And the inhibition at 50 µM ([11]; Measles morbillivirus, read-out: Window of antiviral effects: Attachment Method 1, inhibitory effect relative to DMSO control)?
**A.** The inhibition at 50 µM was greater than 75%.

**Q.** And the “inhibition of virus attachment” value ([12]; RSV, method 1, 4°C, Figure 4)?
**A.** The value was 90 – 100%.

**Q.** What about the inhibition at 2 µM ([12]; human respiratory syncytial virus, HEp-2, read-out: Window of antiviral effects: Attachment Method 1, inhibitory effect relative to DMSO control) of the same molecule?
**A.** Its inhibition at 2 µM is greater than 75%.

**Q.** What about the “Window of antiviral effects: Attachment Method 2, inhibitory effect relative to DMSO control” value [13] of the same molecule?
**A.** Its value is “++ (++ 50–75%)”.

**Q.** And the “Window of antiviral effects: Attachment Method 2, inhibitory effect relative to DMSO control” value [14]?
**A.** Its value is “+++ (+++ > 75%)”.

**Q.** And the “Window of antiviral effects: Attachment Method 2, inhibitory effect relative to DMSO control” value [15]?
**A.** The value was “+++ (+++ > 75%)”.

**Q.** And the “Window of antiviral effects: Attachment Method 2, inhibitory effect relative to DMSO control” value [16]?
**A.** The value was “++ (++ 50–75%)”.

**Q.** What about the “Window of antiviral effects: Attachment Method 2, inhibitory effect relative to DMSO control” value [17] of the same molecule?
**A.** Its value is “+++ (+++ > 75%)”.

**Q.** And the “protection of the host cell from infection during virus penetration” value (“protection of the host cell” for short) ([18]; HCMV, shift 4°C to 37°C, Figure 4)?
**A.** The value was 50 – 90%.

**Q.** What about the inhibition at 40 µM ([18]; Human betaherpesvirus 5, HEL, read-out: Window of antiviral effects: Penetration, inhibitory effect relative to DMSO control) of the same molecule?
**A.** The inhibition at 40 µM was 50 to 75%.

**Q.** What about the “protection of the host cell” value ([19]; HCV, shift 4°C to 37°C, Figure 4) of the same molecule?
**A.** The value was 50 – 90%.

**Q.** What about the inhibition at 50 µM ([19]; Hepatitis C virus, Huh7.5, read-out: Window of antiviral effects: Penetration, inhibitory effect relative to DMSO control) of the same molecule?
**A.** The inhibition at 50 µM was greater than 75%.

**Q.** And the “protection of the host cell” value ([20]; MV, shift 4°C to 37°C, Figure 4)?
**A.** Its value is 50 – 90%.

**Q.** And the inhibition at 50 µM ([20]; Measles morbillivirus, read-out: Window of antiviral effects: Penetration, inhibitory effect relative to DMSO control)?
**A.** The inhibition at 50 µM was greater than 75%.

**Q.** And the “protection of the host cell” value ([21]; RSV, shift 4°C to 37°C, Figure 4)?
**A.** The value was 50 – 90%.

**Q.** What about the inhibition at 2 µM ([21]; human respiratory syncytial virus, HEp-2, read-out: Window of antiviral effects: Penetration, inhibitory effect relative to DMSO control) of the same molecule?
**A.** The inhibition at 2 µM was greater than 75%.

**Q.** What about the “protection, treatment post-infection” value ([22]; HCMV, Figure 6) of the same molecule?
**A.** Its value is 80 – 100%.

**Q.** And the inhibition at 40 µM ([22]; Human betaherpesvirus 5, HEL, read-out: Window of antiviral effects: Post-infection, inhibitory effect relative to DMSO control)?
**A.** Its inhibition at 40 µM is greater than 75%.

**Q.** And the “protection, treatment post-infection” value ([23]; HCV, Figure 6)?
**A.** Its value is 80 – 100%.

**Q.** What about the inhibition at 50 µM ([23]; Hepatitis C virus, Huh7.5, read-out: Window of antiviral effects: Post-infection, inhibitory effect relative to DMSO control) of the same molecule?
**A.** Its inhibition at 50 µM is greater than 75%.

**Q.** And the “protection, treatment post-infection” value [24]?
**A.** Its value is less than 25%.

**Q.** What about the “protection, treatment post-infection” value ([25]; MV, Figure 6) of the same molecule?
**A.** The value was 80 – 100%.

**Q.** And the inhibition at 50 µM ([25]; Measles morbillivirus, read-out: Window of antiviral effects: Post-infection, inhibitory effect relative to DMSO control)?
**A.** Its inhibition at 50 µM is greater than 75%.

**Q.** And the “protection, treatment post-infection” value ([26]; RSV, Figure 6)?
**A.** The value was less than 25%.

**Q.** And the inhibition at 2 µM ([26]; human respiratory syncytial virus, HEp-2, read-out: Window of antiviral effects: Post-infection, inhibitory effect relative to DMSO control)?
**A.** Its inhibition at 2 µM is less than 25%.

**Q.** What about the “effect on viral plaque size (cell-to-cell spread)” value (shortened to “effect on viral plaque size”) ([27]; HCMV, Figure 7) of the same molecule?
**A.** Its value is “near initial size”.

**Q.** What about the inhibition at 40 µM ([27]; Human betaherpesvirus 5, HEL, read-out: Window of antiviral effects: Cell-to-cell spread, inhibitory effect relative to DMSO control) of the same molecule?
**A.** The inhibition at 40 µM was greater than 75%.

**Q.** What about the “effect on viral plaque size” value ([28]; DENV-2, Figure 7) of the same molecule?
**A.** Its value is “unaffected and expanded further”.

**Q.** What about the inhibition at 25 µM ([28]; Dengue virus, DENV2, Vero, read-out: Window of antiviral effects: Cell-to-cell spread, inhibitory effect relative to DMSO control) of the same molecule?
**A.** The inhibition at 25 µM was less than 25%.

**Q.** What about the “effect on viral plaque size” value ([29]; RSV, Figure 7) of the same molecule?
**A.** The value was “unaffected and expanded further”.

**Q.** What about the inhibition at 2 µM ([29]; human respiratory syncytial virus, HEp-2, read-out: Window of antiviral effects: Cell-to-cell spread, inhibitory effect relative to DMSO control) of the same molecule?
**A.** The inhibition at 2 µM was less than 25%.

**Q.** What about the in vivo toxicity [30] of the same molecule?
**A.** Its in vivo toxicity is “minimal toxicity”.
